# Results taken from patent US20240116985A1, “STAPLED PEPTIDES AND METHODS THEREOF” (priority 2020, published 2024).
# Biological target: T1, full-length beta-Catenin (Uniprot ID P35222) (Homo sapiens, UniProt P35222)
# T1 construct: 10 nM full-length beta-Catenin (Uniprot ID P35222)
# T1 sequence (P35222 1-781): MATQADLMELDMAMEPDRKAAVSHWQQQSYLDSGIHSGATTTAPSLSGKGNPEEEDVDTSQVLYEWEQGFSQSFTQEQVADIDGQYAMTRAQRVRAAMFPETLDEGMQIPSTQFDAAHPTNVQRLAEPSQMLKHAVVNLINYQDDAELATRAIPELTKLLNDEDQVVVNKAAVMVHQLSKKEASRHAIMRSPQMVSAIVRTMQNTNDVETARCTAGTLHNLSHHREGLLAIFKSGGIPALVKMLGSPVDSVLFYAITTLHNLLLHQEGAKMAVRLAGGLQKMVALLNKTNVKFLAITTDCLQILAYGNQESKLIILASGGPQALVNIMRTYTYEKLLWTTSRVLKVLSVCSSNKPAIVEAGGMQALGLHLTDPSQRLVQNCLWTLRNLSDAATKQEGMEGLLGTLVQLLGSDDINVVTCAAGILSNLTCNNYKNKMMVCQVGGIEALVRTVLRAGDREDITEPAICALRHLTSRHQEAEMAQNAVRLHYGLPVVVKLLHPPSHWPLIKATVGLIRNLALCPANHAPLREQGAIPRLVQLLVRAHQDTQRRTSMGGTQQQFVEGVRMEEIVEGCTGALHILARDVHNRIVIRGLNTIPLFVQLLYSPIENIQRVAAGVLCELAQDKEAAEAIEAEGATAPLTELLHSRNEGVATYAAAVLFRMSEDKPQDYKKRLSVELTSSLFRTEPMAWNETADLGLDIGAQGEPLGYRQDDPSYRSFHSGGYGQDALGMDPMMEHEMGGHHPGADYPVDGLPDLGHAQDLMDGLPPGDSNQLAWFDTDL
# Experiment: Fluorescence polarization IC50 (beta-catenin / 5FAM-TCF4 10-53 competition)
# Format: binding
# Conditions: fluorescence polarization; read-out: beta-Catenin FP IC50
row,IC50 [µM],Compound
1,1.35,"CC(C)C[C@H](NC(=O)[C@]12CCN(C1)C(=O)OCCCC=CCCCC1(CCCC=CCCCC(=O)N3CCC[C@@]3(C)C(=O)N[C@@H](CC(=O)O)C(=O)N1)C(=O)N[C@@H](C)C(=O)N[C@@H](CC(=O)O)C(=O)N[C@@H](CC(=O)O)C(=O)N[C@@H](C)C(=O)N[C@@H](C)C(=O)N[C@@H](Cc1ccccc1)C(=O)N2)C(=O)N[C@@H](Cc1ccsc1)C(=O)N[C@@H](Cc1csc2ccccc12)C(=O)N[C@@H](CCC(N)=O)C(N)=O (stereo partly drawn) [I-2598, 5hexenyl-MePro-Asp-B5-Ala-Asp-Asp-Ala-Ala-Phe-PyrS2-Leu-3Thi-BztA-Gln-NH2]"
2,8.22,"CC(C)C[C@H](NC(=O)[C@]12CCN(C1)C(=O)OCCCC=CCCCC1(CCCC=CCCCC(=O)N3CCC[C@@]3(C)C(=O)N[C@@H](CC(=O)O)C(=O)N1)C(=O)N[C@@H](C)C(=O)N[C@@H](CC(=O)O)C(=O)N[C@@H](Cc1cccc(C(=O)O)c1)C(=O)N[C@@H](C)C(=O)N[C@@H](C)C(=O)N[C@@H](Cc1ccccc1)C(=O)N2)C(=O)N[C@@H](Cc1ccsc1)C(=O)N[C@@H](Cc1csc2ccccc12)C(=O)N[C@@H](CCC(N)=O)C(N)=O (stereo partly drawn) [I-2602, 5hexenyl-MePro-Asp-B5-Ala-Asp-3COOHF-Ala-Ala-Phe-PyrS2-Leu-3Thi-BztA-Gln-NH2]"
3,0.767,"CC(C)C[C@H](NC(=O)[C@]12CCN(C1)C(=O)OCCCC=CCCCC1(CCCC=CCCC(=O)N3CCC[C@@]3(C)C(=O)N[C@@H](CC(=O)O)C(=O)N1)C(=O)N[C@@H](C)C(=O)N[C@@H](CC(=O)O)C(=O)N[C@@H](Cc1cccc(C(=O)O)c1)C(=O)N[C@@H](C)C(=O)N[C@@H](C)C(=O)N[C@@H](Cc1ccccc1)C(=O)N2)C(=O)N[C@@H](Cc1ccsc1)C(=O)N[C@@H](Cc1csc2ccccc12)C(=O)N[C@@H](CCC(N)=O)C(N)=O (stereo partly drawn) [I-2603, 4pentenyl-MePro-Asp-B5-Ala-Asp-3COOHF-Ala-Ala-Phe-PyrS2-Leu-3Thi-BztA-Gln-NH2]"
4,0.608,"CC(C)C[C@H](NC(=O)[C@]12CCN(C1)C(=O)OCCCCCCCCC1(CCCCCCCC(=O)N3CCC[C@@]3(C)C(=O)N[C@@H](CC(=O)O)C(=O)N1)C(=O)N[C@@H](C)C(=O)N[C@@H](CC(=O)O)C(=O)N[C@@H](Cc1cccc(C(=O)O)c1)C(=O)N[C@@H](C)C(=O)N[C@@H](C)C(=O)N[C@@H](Cc1ccccc1)C(=O)N2)C(=O)N[C@@H](Cc1ccsc1)C(=O)N[C@@H](Cc1csc2ccccc12)C(=O)N[C@@H](CCC(N)=O)C(N)=O (stereo partly drawn) [I-2605, 4pentenyl-MePro-Asp-B5-Ala-Asp-3COOHF-Ala-Ala-Phe-PyrS2-Leu-3Thi-BztA-Gln-NH2]"

# Second part, the compound before the results:
row,Compound,IC50 [µM]
1,"CC(C)C[C@H](NC(=O)[C@]12CCN(C1)C(=O)OCCCCCCCCC1(CCCCCCCCC(=O)N3CCC[C@@]3(C)C(=O)N[C@@H](CC(=O)O)C(=O)N1)C(=O)N[C@@H](C)C(=O)N[C@@H](CC(=O)O)C(=O)N[C@@H](CC(=O)O)C(=O)N[C@@H](C)C(=O)N[C@@H](C)C(=O)N[C@@H](Cc1ccccc1)C(=O)N2)C(=O)N[C@@H](Cc1ccsc1)C(=O)N[C@@H](Cc1csc2ccccc12)C(=O)N[C@@H](CCC(N)=O)C(N)=O (stereo partly drawn) [I-2600, 5hexenyl-MePro-Asp-B5-Ala-Asp-Asp-Ala-Ala-Phe-PyrS2-Leu-3Thi-BztA-Gln-NH2]",0.923
2,"CC(C)C[C@H](NC(=O)[C@]12CCN(C1)C(=O)OCCCCCCCCC1(CCCCCCCC(=O)N3CCC[C@@]3(C)C(=O)N[C@@H](CC(=O)O)C(=O)N1)C(=O)N[C@@H](C)C(=O)N[C@@H](CC(=O)O)C(=O)N[C@@H](CC(=O)O)C(=O)N[C@@H](C)C(=O)N[C@@H](C)C(=O)N[C@@H](Cc1ccccc1)C(=O)N2)C(=O)N[C@@H](Cc1ccsc1)C(=O)N[C@@H](Cc1csc2ccccc12)C(=O)N[C@@H](CCC(N)=O)C(N)=O (stereo partly drawn) [I-2601, 4pentenyl-MePro-Asp-B5-Ala-Asp-Asp-Ala-Ala-Phe-PyrS2-Leu-3Thi-BztA-Gln-NH2]",0.592
3,"CC(C)C[C@H](NC(=O)[C@]12CCN(C1)C(=O)OCCCCCCCCC1(CCCCCCCCC(=O)N3CCC[C@@]3(C)C(=O)N[C@@H](CC(=O)O)C(=O)N1)C(=O)N[C@@H](C)C(=O)N[C@@H](CC(=O)O)C(=O)N[C@@H](Cc1cccc(C(=O)O)c1)C(=O)N[C@@H](C)C(=O)N[C@@H](C)C(=O)N[C@@H](Cc1ccccc1)C(=O)N2)C(=O)N[C@@H](Cc1ccsc1)C(=O)N[C@@H](Cc1csc2ccccc12)C(=O)N[C@@H](CCC(N)=O)C(N)=O (stereo partly drawn) [I-2604, 5hexenyl-MePro-Asp-B5-Ala-Asp-3COOHF-Ala-Ala-Phe-PyrS2-Leu-3Thi-BztA-Gln-NH2]",1.12
4,"CC(C)C[C@H](NC(=O)[C@]12CCN(C1)C(=O)OCCCCCCCCC1(CCCCCCC(=O)N3CCC[C@@]3(C)C(=O)N[C@@H](CC(=O)O)C(=O)N1)C(=O)N[C@@H](C)C(=O)N[C@@H](CC(=O)O)C(=O)N[C@@H](CC(=O)O)C(=O)N[C@@H](C)C(=O)N[C@@H](C)C(=O)N[C@@H](Cc1ccccc1)C(=O)N2)C(=O)N[C@@H](Cc1ccsc1)C(=O)N[C@@H](Cc1csc2ccccc12)C(=O)N[C@@H](CCC(N)=O)C(N)=O (stereo partly drawn) [I-2608, 3butenyl-MePro-Asp-B5-Ala-Asp-Asp-Ala-Ala-Phe-PyrS2-Leu-3Thi-BztA-Gln-NH2]",0.251
5,"CC(=O)N1CCC[C@]12CC=CCCCC1(CCCC=CCCCOC(=O)N3CC(C(=O)N[C@@H](Cc4ccccc4C(F)(F)F)C(=O)N[C@@H](Cc4csc5ccccc45)C(=O)N[C@@H](CCC(N)=O)C(N)=O)(C3)NC(=O)[C@H](CC(C)C)NC(=O)[C@H](Cc3ccccc3)NC(=O)[C@H](C)NC(=O)[C@H](C)NC(=O)[C@H](Cc3cccc(C(=O)O)c3)NC(=O)[C@H](CC(=O)O)NC1=O)NC(=O)[C@H](CC(C)(C)C)NC(=O)[C@H](CC(=O)O)NC2=O (stereo partly drawn) [I-2610, Ac-PL3-Asp-Npg-B5-Asp-3COOHF-Ala-Ala-Phe-Leu-Az2-2F3MeF-BztA-Gln-NH2]",0.215
6,"CC(=O)N1CCC[C@]12CC=CCCCC1(CCCC=CCCCCOC(=O)N3CC(C(=O)N[C@@H](Cc4ccccc4C(F)(F)F)C(=O)N[C@@H](Cc4csc5ccccc45)C(=O)N[C@@H](CCC(N)=O)C(N)=O)(C3)NC(=O)[C@H](CC(C)C)NC(=O)[C@H](Cc3ccccc3)NC(=O)[C@H](C)NC(=O)[C@H](C)NC(=O)[C@H](Cc3cccc(C(=O)O)c3)NC(=O)[C@H](CC(=O)O)NC1=O)NC(=O)[C@H](CC(C)(C)C)NC(=O)[C@H](CC(=O)O)NC2=O (stereo partly drawn) [I-2611, Ac-PL3-Asp-Npg-B5-Asp-3COOHF-Ala-Ala-Phe-Leu-Az3-2F3MeF-BztA-Gln-NH2]",0.188
7,"CC(=O)N1CCC[C@]12CC=CCCCC1(CCCC=CCCCCOC(=O)N3CC(C(=O)N[C@@H](Cc4ccsc4)C(=O)N[C@@H](Cc4csc5ccccc45)C(=O)N[C@@H](CCC(N)=O)C(N)=O)(C3)NC(=O)[C@H](CC(C)C)NC(=O)[C@H](Cc3ccccc3)NC(=O)[C@H](C)NC(=O)[C@H](C)NC(=O)[C@H](Cc3cccc(C(=O)O)c3)NC(=O)[C@H](CC(=O)O)NC1=O)NC(=O)[C@H](CC(C)(C)C)NC(=O)[C@H](CC(=O)O)NC2=O (stereo partly drawn) [I-2612, Ac-PL3-Asp-Npg-B5-Asp-3COOHF-Ala-Ala-Phe-Leu-Az3-3Thi-BztA-Gln-NH2]",0.085
8,"CC(=O)N1CCC[C@]12CC=CCCCC1(CCCC=CCCCOC(=O)N3CC(C(=O)N[C@@H](Cc4ccccc4C(F)(F)F)C(=O)N[C@@H](Cc4csc5ccccc45)C(=O)N[C@@H](CCC(N)=O)C(N)=O)(C3)NC(=O)[C@H](CC(C)C)NC(=O)[C@H](Cc3ccccc3)NC(=O)[C@H](C)NC(=O)C(C)(C)NC(=O)[C@H](Cc3cccc(C(=O)O)c3)NC(=O)[C@H](CC(=O)O)NC1=O)NC(=O)[C@H](CC(C)(C)C)NC(=O)[C@H](CC(=O)O)NC2=O (stereo partly drawn) [I-2613, Ac-PL3-Asp-Npg-B5-Asp-3COOHF-Aib-Ala-Phe-Leu-Az2-2F3MeF-BztA-Gln-NH2]",0.183
